Test system: IFNα-Induced STAT Phosphorylation in Human Whole Blood
Assay: IFNα-Induced STAT Phosphorylation in Human Whole Blood
Assay type: cell-based
Details: 1 h incubation with compound, 1000 U/mL recombinant human IFNα A/D for 15 min, pSTAT5 (pY694) median fluorescence intensity in CD3 positive population, read-out: hWB IC50
Method: IFNα-Induced STAT Phosphorylation in Human Whole Blood
After an hour long incubation with compound, human whole blood (drawn with either EDTA or ACD-A as anti-coagulant) was stimulated with 1000 U/mL recombinant human IFNα A/D (R&D Systems 11200-2) for 15 min. The stimulation was stopped by adding Fix/Lyse buffer (BD 558049). Cells were stained with a CD3 FITC antibody (BD 555916), washed, and permeabilized on ice using Perm III buffer (BD 558050). […] The amount of pSTAT5 expression was quantitated by median fluorescence intensity after gating on the CD3 positive population.
IFNα-Induced STAT Phosphorylation in Human Whole Blood Inhibition Data

SMILES	IC50
[2H]C([2H])([2H])NC(=O)c1nnc(Nc2cc(C(C)(C)O)n(C)n2)cc1Nc1cc(F)cc(-c2ncc(F)cn2)c1OC [Example 83, 4-((5-fluoro-3-(5-fluoropyrimidin-2-yl)-2-methoxyphenyl)amino)-6-((5-(2-hydroxypropan-2-yl)-1-methyl-1H-pyrazol-3-yl)amino)-N-(methyl-d3)pyridazine-3-carboxamide]	77 nM
[2H]C([2H])([2H])NC(=O)c1nnc(Nc2cnc(C(C)(C)O)cn2)cc1Nc1cccc(-c2ncc(F)cn2)c1OC [Example 101, 4-((3-(5-fluoropyrimidin-2-yl)-2-methoxyphenyl)amino)-6-((5-(2-hydroxypropan-2-yl)pyrazin-2-yl)amino)-N-(methyl-d3)pyridazine-3-carboxamide]	93 nM
[2H]C([2H])([2H])NC(=O)c1nnc(Nc2cc(C(C)(C)O)n(C)n2)cc1Nc1cccc(-c2ncc(F)cn2)c1OC [Example 82, 4-((3-(5-fluoropyrimidin-2-yl)-2-methoxyphenyl)amino)-6-((5-(2-hydroxypropan-2-yl)-1-methyl-1H-pyrazol-3-yl)amino)-N-(methyl-d3)pyridazine-3-carboxamide]	49 nM
[2H]C([2H])([2H])NC(=O)c1cnc(NC(=O)C2CC2)cc1Nc1cccc(-c2ncc(N3CCOCC3)cn2)c1OC [Example 16, 6-(cyclopropanecarboxamido)-4-((2-methoxy-3-(5-morpholinopyrimidin-2-yl)phenyl)amino)-N-(methyl-d3)nicotinamide]	54 nM
[2H]C([2H])([2H])NC(=O)c1nnc(Nc2ccc(C(C)(C)O)cn2)cc1Nc1cc(F)cc(-c2ncccn2)c1OC [Example 104, 4-((5-fluoro-2-methoxy-3-(pyrimidin-2-yl)phenyl)amino)-6-((5-(2-hydroxypropan-2-yl)pyridin-2-yl)amino)-N-(methyl-d3)pyridazine-3-carboxamide]	41 nM
[2H]C([2H])([2H])NC(=O)c1cnc(NC(=O)C2CC2)cc1Nc1cccc(-c2cnc(-n3cncn3)cn2)c1OC [Example 60, 4-((3-(5-(1H-1,2,4-triazol-1-yl)pyrazin-2-yl)-2-methoxyphenyl)amino)-6-(cyclopropanecarboxamido)-N-(methyl-d3)nicotinamide]	1040 nM
[2H]C([2H])([2H])NC(=O)c1nnc(NC(=O)C2CC2)cc1Nc1cccc(-c2ncc(C3(O)CCOC3)cn2)c1OC (stereo not drawn) [Example 31, 6-(cyclopropanecarboxamido)-4-((3-(5-(3-hydroxytetrahydrofuran-3-yl)pyrimidin-2-yl)-2-methoxyphenyl)amino)-N-(methyl-d3)pyridazine-3-carboxamide]	24 nM
[2H]C([2H])([2H])NC(=O)c1nnc(NC(=O)C2CC2)cc1Nc1cccc(-c2cnc(C(=O)N3CCC3)cn2)c1OC [Example 40, 4-((3-(5-(azetidine-1-carbonyl)pyrazin-2-yl)-2-methoxyphenyl)amino)-6-(cyclopropanecarboxamido)-N-(methyl-d3)pyridazine-3-carboxamide]	360 nM
[2H]C([2H])([2H])NC(=O)c1nnc(Nc2cc(C(C)(C)O)n(C)n2)cc1Nc1cc(F)cc(-c2ncccn2)c1OC [Example 84, 4-((5-fluoro-2-methoxy-3-(pyrimidin-2-yl)phenyl)amino)-6-((5-(2-hydroxypropan-2-yl)-1-methyl-1H-pyrazol-3-yl)amino)-N-(methyl-d3)pyridazine-3-carboxamide]	19 nM
[2H]C([2H])([2H])NC(=O)c1nnc(Nc2ccn(C3CC3)n2)cc1Nc1cccc(-c2ncc(F)cn2)c1OC [Example 78, 6-((1-cyclopropyl-1H-pyrazol-3-yl)amino)-4-((3-(5-fluoropyrimidin-2-yl)-2-methoxyphenyl)amino)-N-(methyl-d3)pyridazine-3-carboxamide]	192 nM
[2H]C([2H])([2H])NC(=O)c1nnc(NC(=O)C2CC2)cc1Nc1cccc(-c2ncc(C(C)(O)CF)cn2)c1OC (stereo not drawn) [Example 26, 6-(cyclopropanecarboxamido)-4-((3-(5-(1-fluoro-2-hydroxypropan-2-yl)pyrimidin-2-yl)-2-methoxyphenyl)amino)-N-(methyl-d3)pyridazine-3-carboxamide]	16 nM
[2H]C([2H])([2H])NC(=O)c1nnc(NC(=O)C2CC2)cc1Nc1cc(F)cc(-c2ncc(C3(O)CCC3)cn2)c1OC [Example 28, 6-(cyclopropanecarboxamido)-4-((5-fluoro-3-(5-(1-hydroxycyclobutyl)pyrimidin-2-yl)-2-methoxyphenyl)amino)-N-(methyl-d3)pyridazine-3-carboxamide]	170 nM
[2H]C([2H])([2H])NC(=O)c1nnc(NC(=O)C2CC2)cc1Nc1cccc(-c2ccc(C(=O)N3CCCC3)cn2)c1OC [Example 45]	218 nM
[2H]C([2H])([2H])NC(=O)c1nnc(Nc2cn(CC)nn2)cc1Nc1cc(F)cc(-c2ncccn2)c1OC [Example 92, 6-((1-ethyl-1H-1,2,3-triazol-4-yl)amino)-4-((5-fluoro-2-methoxy-3-(pyrimidin-2-yl)phenyl)amino)-N-(methyl-d3)pyridazine-3-carboxamide]	136 nM
[2H]C([2H])([2H])NC(=O)c1nnc(NC(=O)C2CC2)cc1Nc1cccc(-c2cnc(C(=O)NC)cn2)c1OC [Example 39, 6-(cyclopropanecarboxamido)-4-((2-methoxy-3-(5-(methylcarbamoyl)pyrazin-2-yl)phenyl)amino)-N-(methyl-d3)pyridazine-3-carboxamide]	218 nM
[2H]C([2H])([2H])NC(=O)c1nnc(NC(=O)C2CC2)cc1Nc1cccc(-c2ncc(C#N)cn2)c1OC [Example 2, 4-((3-(5-cyanopyrimidin-2-yl)-2-methoxyphenyl)amino)-6-(cyclopropanecarboxamido)-N-(methyl-d3)pyridazine-3-carboxamide]	426 nM
[2H]C([2H])([2H])NC(=O)c1nnc(NC(=O)C2CC2)cc1Nc1cc(F)cc(-c2ncc(C(=O)N(C)CC)cn2)c1OC [Example 54, 6-(cyclopropanecarboxamido)-4-((3-(5-(ethyl(methyl)carbamoyl)pyrimidin-2-yl)-5-fluoro-2-methoxyphenyl)amino)-N-(methyl-d3)pyridazine-3-carboxamide]	80 nM
[2H]C([2H])([2H])NC(=O)c1nnc(NC(=O)C2CC2)cc1Nc1cccc(-c2cnc(C3(O)CCOC3)cn2)c1OC (stereo not drawn) [Example 34, 6-(cyclopropanecarboxamido)-4-((3-(5-(3-hydroxytetrahydrofuran-3-yl)pyrazin-2-yl)-2-methoxyphenyl)amino)-N-(methyl-d3)pyridazine-3-carboxamide]	36 nM
[2H]C([2H])([2H])NC(=O)c1nnc(Nc2cnn(C)n2)cc1Nc1cccc(-c2ncc(F)cn2)c1OC [Example 90, 4-((3-(5-fluoropyrimidin-2-yl)-2-methoxyphenyl)amino)-N-(methyl-d3)-6-((2-methyl-2H-1,2,3-triazol-4-yl)amino)pyridazine-3-carboxamide]	170 nM
[2H]C([2H])([2H])NC(=O)c1nnc(NC(=O)C2CC2)cc1Nc1cccc(-c2ccc(S(C)(=O)=O)cn2)c1OC [Example 110]	480 nM
[2H]C([2H])([2H])NC(=O)c1cnc(Nc2cnc(C#N)cn2)cc1Nc1cccc(-c2ncccn2)c1OC [Example 72, 6-((5-cyanopyrazin-2-yl)amino)-4-((2-methoxy-3-(pyrimidin-2-yl)phenyl)amino)-N-(methyl-d3)nicotinamide]	168 nM
